Results as given in ChEMBL document CHEMBL4196243, “Antileishmanial Carbasugars from Geosmithia langdonii” (J Nat Prod, 2018).

These molecules were tested on Leishmania donovani (assay: Antileishmanial activity against Leishmania donovani promastigotes by alamar blue dye based fluorescence assay).
Assay type: functional, organism-based

Q: With `C[C@@H]1[C@H](O)[C@@H](C)/C=C/C=C/C=C/C=C/C=C/C=C/C=C/[C@H](O[C@@H]2O[C@H](C)[C@@H](O)[C@H](N)[C@@H]2O)C[C@@H]2O[C@](O)(C[C@@H](O)C[C@@H](O)[C@H](O)CC[C@@H](O)C[C@@H](O)CC(=O)O[C@H]1C)C[C@H](O)[C@H]2C(=O)O` [AMPHOTERICIN B] as the molecule, how does the IC90 read?
A: 0.4 µM

Q: For `C[C@@H]1C[C@H](O)[C@H](O)[C@H](O)[C@@H]1OCc1cc(O)ccc1O`, which IC50 is on record?
A: 57 µM

Q: What about the IC90 of the same molecule?
A: 119 µM

Q: How did the IC50 turn out when `C[C@@H]1C[C@H](OC(=O)c2cc(O)ccc2O)[C@H](O)[C@H](O)[C@@H]1O` was run?
A: 100 µM

Q: What about the IC90 of the same molecule?
A: > 134 µM

Q: What does the source list for `N=C(N)c1ccc(OCCCCCOc2ccc(C(=N)N)cc2)cc1` [PENTAMIDINE]?
A: IC50: 9 µM; IC90: 17 µM
